Laboratory results from patent publication US11192871B2, “5-hydroxytryptamine receptor 7 activity modulators and their method of use” (Temple University-Of The Commonwealth System of Higher …, priority 2014, dated 2021).

Biological target: Serotonin 5HT7 receptors (Homo sapiens (Human), UniProt P34969)
Test: Radiolabel Binding Studies for Serotonin 5HT7 receptors
Details: for inhibition at 10 µM: read-out: 5-HT7 % inhib @ 10 uM; for IC50: radioligand competition binding, membranes of cells expressing recombinant 5HT7 receptors
Procedure: Radiolabel Binding Studies for Scrotonin 5HT7 Receptors, Method 1:
Eleven dilutions (5× assay concentration) of the compound of the disclosure and chlorpromazine are prepared in the Assay Buffer by serial dilution to yield final corresponding assay concentrations ranging from 10 pM to 10 μM.
(§1) A stock concentration of 5 nM [^3H]LSD (lysergic acid diethyl amide) is prepared in 50 mM Tris-HCl, 10 mM MgCl2, 1 mM EDTA, pH 7.4 (Assay Buffer). Aliquots (50 μl) of radioligand are dispensed into the wells of a 96-well plate containing 100 μl of Assay Buffer. Duplicate 50-μl aliquots of the compound of the disclosure test and chlorpromazine positive control reference compound serial dilutions are added.
(§2) Membrane fractions of cells expressing recombinant 5HT7 receptors (50 μL) are dispensed into each well. The membranes are prepared from stably transfected cell lines expressing 5HT7 receptors cultured on 10-cm plates by harvesting PBS-rinsed monolayers, resuspending and lysing in chilled, hypotonic 50 mM Tris-HCl, pH 7.4, centrifuging at 20,000×g, decanting the supernatant and storing at −80° C.; the membrane preparations are resuspended in 3 ml of chilled Assay Buffer and homogenized by several passages through a 26 gauge needle before using in the assay.
The 250-μl reactions are incubated at room temperature for 1.5 hours, then harvested by rapid filtration onto 0.3% polyethyleneimine-treated, 96-well filter mats using a 96-well Filtermate harvester. Four rapid 500-μl washes are performed with chilled Assay Buffer to reduce non-specific binding. The filter mats are dried, then scintillant is added to the filters and the radioactivity retained on the filters is counted in a Microbeta scintillation counter.
Raw data (dpm) representing total radioligand binding (i.e., specific+non-specific binding) are plotted as a function of the logarithm of the molar concentration of the competitor (i.e., test or reference compound).
Radiolabel Binding Studies for Serotonin 5-HT7 Receptors, Method 2:
as §1, with “[^3H]-5-Hydroxytryptamine ([^3H]-5HT)” for “[^3H]LSD (lysergic acid diethyl amide)”
as §2, with “guage” for “gauge”

| SMILES | inhibition at 10 µM | 5-HT7 % inhib @ 10 uM (single concentration of 10 uM, percent inhibition of radioligand binding) | IC50 |
| --- | --- | --- | --- |
| O=C1OC(CCN2CCN(c3ccc4[nH]ccc4c3)CC2)CC12CCCC2 (stereo not shown) [Entry 160147] | 99.6% |  |  |
| O=C1OC(CCN2CCN(c3ccnc(Cl)c3)CC2)CC12CCCCC2 (stereo not shown) [Entry 160153] |  | 58.2% |  |
| COc1ccnc(N2CCN(CCC3CC4(CCCC4)C(=O)O3)CC2)c1 (stereo not shown) [Entry 230009] | 90% |  | 124 nM |
| COc1ccc(N2CCN(CC[C@@H]3CC(C)(C)C(=O)O3)CC2)cc1 [Entry 230039] |  |  | 1000 nM |
| COc1ccc(N2CCN(CC[C@H]3CC(C)(C)C(=O)O3)CC2)cc1 [Entry 230046] |  |  | 1000 nM |
| CCC1(CC)CC(CCCN2CCN(c3ccc(OC)cc3)CC2)OC1=O (stereo not shown) [Entry 230060] |  |  | 1000 nM |
| CCC1(CC)CC(CCN2CCN(c3ccc4nc(C(F)(F)F)[nH]c4c3)CC2)OC1=O (stereo not shown) [Entry 230068] |  |  | 1000 nM |
| CCC1(CC)CC(CCN2CCN(c3ccc4nc(C)[nH]c4c3)CC2)OC1=O (stereo not shown) [Entry 230069] | 15.9% |  | 1000 nM |
